Assay results from patent US5939403A, “Keratan sulfate oligosaccharide fraction and pharmaceutical containing the same” (Seikagaku Corporation, priority 1994, dated 1999).
Counter-ions that a name gives are not always drawn.

What was measured:
[1] = test system: foot edema reversed passive Arthus reaction; assay: Foot edema reversed passive Arthus reaction; assay type: in vivo, Male Crj:SD rats
Description: The effect of the keratan sulfate oligosaccharide was examined on the foot edema reversed passive Arthus reaction of rats, which is a type III allergic inflammation model. That is, the rabbit antiovalbumin serum was subcutaneously administered to the planta of the rats which were previously subjected to the administration of the test substances, furthermore ovalbumin was administered by injection into the caudal vein thereof to induce inflammation (edema), and the inhibitory effect on edema of the test substances was examined.
Male Crj:SD rats of five weeks old were subjected to a fast of about 17 hours after a week period of quarantine, and, before inducing inflammation, subjected to the administration of the purified keratan sulfate tetrasaccharide (I) which was prepared in Example 1, indomethacin (Sigma; Lot No. 19F0018), or dexamethasone (Banyu Pharmaceutical); Decadron injection; Lot No. 8D307P) as the test substances, or saline (Otsuka Pharmaceutical; Lot No. K3H72) as the negative control. The keratan sulfate tetrasaccharide (I) and dexamethasone were dissolved in saline, respectively, and the indomethacin was dissolved in 0.5% sodium carboxymethylcellulose (CMC-Na; Wako Pure Chemical Industries; Lot No. PTN1418) in use. The volume of dose was 0.5 ml per 100 g weight in each test. Concerning the route of administration, the keratan sulfate tetrasaccharide (I), saline, and dexamethasone were administered from the caudal vein, and the indomethacin was orally administered. And the substances except for indomethacin were administered by the blind method.
The dose and administration schedule of each test substance were as follows. Each group consisted of five animals.
The rabbit antiovalbumin serum was subcutaneously administered to each of the rats described above on the planta thereof, and ovalbumin was further administered by injection into the caudal vein to induce inflammation foot edema. The antiserum used was prepared as follows. That is, to the regions of back of rabbits, 1 ml of the equivalently mixed solution (emulsion) of the saline containing 2% ovalbumin (10 mg per one animal, Egg Albumin 5×Cryst, Lot No. P93601; Seikagaku Corporation) and the Freund's complete adjuvant (FCA) was intradermally injected once a week three times totally to subject themselves to sensitization. About 34 days after the last sensitization, the blood was drawn to obtain the antiserum. The antibody titer of the antiserum obtained was determined by the double layer method. Namely, the determination was performed using the white precipitation reaction of the antiserum diluted with saline and the saline containing 0.1% ovalbumin (1 mg/ml) as the indicator. As a result, the antibody titer of the antiserum obtained was x2^7.
After the period which is designed for each group, each 0.1 ml of the sixfold diluted antiserum was subcutaneously administered to the planta of left rear foot of the rats which were subjected to the administration of each test substance. Then, the saline containing 0.5% ovalbumin (25 mg/5 ml/kg) was administered into the caudal vein to induce inflammation. The volume of the treated feet in each group was determined before inducing inflammation, and one, two, three and four hours after inducing inflammation by a foot volume determining device (TK-101, Unicom) to yield the foot edematization rate from the difference from the value before the induction, and the edematization inhibitory rate of the test substance administered group to the control group was calculated. In each edematization rate obtained, the difference between the averages was tested by the minimum significant difference test. The foot edematization rate and the edematization inhibitory rate of each administered group are shown in Table 9, and the foot edematization rate of the administered groups which was subjected to the administration of the agent at five minutes and at three hours before inducing inflammation are shown in FIG. 6 and FIG. 7, respectively. […]

MRL-lpr/lpr mice = assay: Repeated intramuscular administration for four weeks in MRL mice (spleen and mesenteric lymph node weight); assay type: in vivo
Description: The effect of the keratan sulfate oligosaccharide was examined on MRL mice which are autoimmune disease model mice.
The PBS solution of the purified keratan sulfate tetrasaccharide (I) (100 mg/ml) which was prepared in Example 1 described above at a dose of 10 mg/kg weight (hereinafter referred to as the administered group), and PBS as the control was intramuscularly injected, respectively, to the femoral region of MRL-lpr/lpr mice five times a week for four weeks. After that, the mice were subjected to anatomization, and the weight of spleens and mesenteric lymph nodes were determined to obtain the average weight. In the table, "n" represents the number of mice used.

SMILES: CC(=O)N[C@H]1[C@H](O[C@H]2[C@@H](O)[C@@H](COS(=O)(=O)O)O[C@@H](O[C@H]3[C@H](O)[C@@H](NC(C)=O)C(O)O[C@@H]3COS(=O)(=O)O)[C@@H]2O)O[C@H](COS(=O)(=O)O)[C@@H](O[C@@H]2O[C@H](COS(=O)(=O)O)[C@H](O)[C@H](O)[C@H]2O)[C@@H]1O (stereo partly drawn) [keratan sulfate tetrasaccharide (I), Gal(6S)β1-4GlcNAc(6S)β1-3Gal(6S)β1-4GlcNAc(6S)]
- Inhibitory Rate ([1]; 1 Hour Later, 1 mg/kg i.v. at 5 minutes before inducing edema): 28.7%
- Edematization Rate ([1]; 1 Hour Later, 1 mg/kg i.v. at 5 minutes before inducing edema, P < 0.01, control 40.9): 29.2 ± 1.3%
- Inhibitory Rate ([1]; 1 Hour Later, 1 mg/kg i.v. at 3 hours before inducing edema): 13.4%
- Edematization Rate ([1]; 1 Hour Later, 1 mg/kg i.v. at 3 hours before inducing edema, control 40.9): 35.4 ± 1.6%
- Inhibitory Rate ([1]; 1 Hour Later, 3 mg/kg i.v. at 5 minutes before inducing edema): 15.8%
- Edematization Rate ([1]; 1 Hour Later, 3 mg/kg i.v. at 5 minutes before inducing edema, control 40.9): 34.4 ± 5.2%
- Inhibitory Rate ([1]; 1 Hour Later, 3 mg/kg i.v. at 3 hours before inducing edema): 10.6%
- Edematization Rate ([1]; 1 Hour Later, 3 mg/kg i.v. at 3 hours before inducing edema, control 40.9): 36.5 ± 3.5%
- Inhibitory Rate ([1]; 1 Hour Later, 10 mg/kg i.v. at 5 minutes before inducing edema): 28.9%
- Edematization Rate ([1]; 1 Hour Later, 10 mg/kg i.v. at 5 minutes before inducing edema, P < 0.01, control 40.9): 29.1 ± 3.7%
- Inhibitory Rate ([1]; 1 Hour Later, 10 mg/kg i.v. at 3 hours before inducing edema): -8.1%
- Edematization Rate ([1]; 1 Hour Later, 10 mg/kg i.v. at 3 hours before inducing edema, control 40.9): 44.2 ± 3.4%
- Inhibitory Rate ([1]; 2 Hours Later, 1 mg/kg i.v. at 5 minutes before inducing edema): 36.5%
- Edematization Rate ([1]; 2 Hours Later, 1 mg/kg i.v. at 5 minutes before inducing edema, P < 0.01, control 46.3): 29.4 ± 2.9%
- Inhibitory Rate ([1]; 2 Hours Later, 1 mg/kg i.v. at 3 hours before inducing edema): 8.4%
- Edematization Rate ([1]; 2 Hours Later, 1 mg/kg i.v. at 3 hours before inducing edema, control 46.3): 42.4 ± 3.6%
- Inhibitory Rate ([1]; 2 Hours Later, 3 mg/kg i.v. at 5 minutes before inducing edema): 8.6%
- Edematization Rate ([1]; 2 Hours Later, 3 mg/kg i.v. at 5 minutes before inducing edema, control 46.3): 42.3 ± 4.2%
- Inhibitory Rate ([1]; 2 Hours Later, 3 mg/kg i.v. at 3 hours before inducing edema): 23.9%
- Edematization Rate ([1]; 2 Hours Later, 3 mg/kg i.v. at 3 hours before inducing edema, P < 0.01, control 46.3, 3 mg/kg): 35.3%
- Edematization Rate ([1]; 2 Hours Later, 3 mg/kg i.v. at 3 hours before inducing edema, P < 0.01, control 46.3, listed as Keratan Sulfate Tetrasaccharide (I), 3 mg/kg): 35.3 ± 2.3%
- Inhibitory Rate ([1]; 2 Hours Later, 10 mg/kg i.v. at 5 minutes before inducing edema): 9.1%
- Edematization Rate ([1]; 2 Hours Later, 10 mg/kg i.v. at 5 minutes before inducing edema, control 46.3): 42.1 ± 2.9%
- Inhibitory Rate ([1]; 2 Hours Later, 10 mg/kg i.v. at 3 hours before inducing edema): 0.4%
- Edematization Rate ([1]; 2 Hours Later, 10 mg/kg i.v. at 3 hours before inducing edema, control 46.3): 46.1 ± 2.6%
- Inhibitory Rate ([1]; 3 Hours Later, 1 mg/kg i.v. at 5 minutes before inducing edema): 17.0%
- Edematization Rate ([1]; 3 Hours Later, 1 mg/kg i.v. at 5 minutes before inducing edema, P < 0.01, control 51.2): 42.3 ± 3.6%
- Inhibitory Rate ([1]; 3 Hours Later, 1 mg/kg i.v. at 3 hours before inducing edema): 8.4%
- Edematization Rate ([1]; 3 Hours Later, 1 mg/kg i.v. at 3 hours before inducing edema, control 51.2): 46.7 ± 2.6%
- Inhibitory Rate ([1]; 3 Hours Later, 3 mg/kg i.v. at 5 minutes before inducing edema): 9.5%
- Edematization Rate ([1]; 3 Hours Later, 3 mg/kg i.v. at 5 minutes before inducing edema, control 51.2): 46.1 ± 2.2%
- Inhibitory Rate ([1]; 3 Hours Later, 3 mg/kg i.v. at 3 hours before inducing edema): 21.5%
- Edematization Rate ([1]; 3 Hours Later, 3 mg/kg i.v. at 3 hours before inducing edema, P < 0.01, control 51.2): 40.1 ± 2.8%
- Inhibitory Rate ([1]; 3 Hours Later, 10 mg/kg i.v. at 5 minutes before inducing edema): 12.3%
- Edematization Rate ([1]; 3 Hours Later, 10 mg/kg i.v. at 5 minutes before inducing edema, control 51.2): 44.8 ± 5.1%
- Inhibitory Rate ([1]; 3 Hours Later, 10 mg/kg i.v. at 3 hours before inducing edema): 18.7%
- Edematization Rate ([1]; 3 Hours Later, 10 mg/kg i.v. at 3 hours before inducing edema, P < 0.01, control 51.2, 10 mg/kg): 41.5%
- Edematization Rate ([1]; 3 Hours Later, 10 mg/kg i.v. at 3 hours before inducing edema, P < 0.01, control 51.2, listed as Keratan Sulfate Tetrasaccharide (I), 10 mg/kg): 41.5 ± 1.8%
- Inhibitory Rate ([1]; 4 Hours Later, 1 mg/kg i.v. at 5 minutes before inducing edema): 11.3%
- Edematization Rate ([1]; 4 Hours Later, 1 mg/kg i.v. at 5 minutes before inducing edema, control 44.9): 39.8 ± 3.0%
- Inhibitory Rate ([1]; 4 Hours Later, 1 mg/kg i.v. at 3 hours before inducing edema): 15.5%
- Edematization Rate ([1]; 4 Hours Later, 1 mg/kg i.v. at 3 hours before inducing edema, P < 0.05, control 44.9, 1 mg/kg): 38%
- Edematization Rate ([1]; 4 Hours Later, 1 mg/kg i.v. at 3 hours before inducing edema, P < 0.05, control 44.9, listed as Keratan Sulfate Tetrasaccharide (I), 1 mg/kg): 38.0 ± 3.5%
- Inhibitory Rate ([1]; 4 Hours Later, 3 mg/kg i.v. at 5 minutes before inducing edema): 17.1%
- Edematization Rate ([1]; 4 Hours Later, 3 mg/kg i.v. at 5 minutes before inducing edema, P < 0.05, control 44.9, 3 mg/kg): 37.2%
- Edematization Rate ([1]; 4 Hours Later, 3 mg/kg i.v. at 5 minutes before inducing edema, P < 0.05, control 44.9, listed as Keratan Sulfate Tetrasaccharide (I), 3 mg/kg): 37.2 ± 3.1%
- Inhibitory Rate ([1]; 4 Hours Later, 3 mg/kg i.v. at 3 hours before inducing edema): 24.4%
- Edematization Rate ([1]; 4 Hours Later, 3 mg/kg i.v. at 3 hours before inducing edema, P < 0.01, control 44.9): 33.9%
- Inhibitory Rate ([1]; 4 Hours Later, 10 mg/kg i.v. at 5 minutes before inducing edema): 21.2%
- Edematization Rate ([1]; 4 Hours Later, 10 mg/kg i.v. at 5 minutes before inducing edema, P < 0.01, control 44.9): 35.4%
- Inhibitory Rate ([1]; 4 Hours Later, 10 mg/kg i.v. at 3 hours before inducing edema): 23.2%
- Edematization Rate ([1]; 4 Hours Later, 10 mg/kg i.v. at 3 hours before inducing edema, P < 0.01, control 44.9): 34.5%
- foot edematization rate, significance (result in words) ([1]; after an hour, administration at five minutes before inducing inflammation): the significant difference was observed in the 1 mg/kg administered group and the 10 mg/kg administered group
- foot edematization rate, significance (result in words) ([1]; an hour after inducing inflammation, administration at three hours before): significant difference was not observed an hour after inducing inflammation
- weight increase in spleens and mesenteric lymph nodes (result in words) (MRL-lpr/lpr mice; 10 mg/kg i.m.): a suppressive tendency for the weight increase in spleens and mesenteric lymph nodes was observed
- Spleen Weight (MRL-lpr/lpr mice; 10 mg/kg i.m. five times a week, n = 9, mean ± standard error, control 1013 ± 233): 704 ± 148 mg
- Mesenteric Lymph Node Weight (MRL-lpr/lpr mice; 10 mg/kg i.m. five times a week, n = 9, mean ± standard error, control 1563 ± 352): 1338 ± 311 mg
